From patent US10087465B2, “Trans-acting elements for intracellular delivery of nucleic acid sequences” (The United States of America, as Represented by the …, priority 2014, dated 2018)
Entries after “also recorded” stand apart in the source; their conditions may differ.

Experiments:
Assay type in all cases: cell-based
[1] = tested on: HeLa pLuc705 cells; experiment: Luciferase splice correction assay; details: for luciferase activity / internalization of the oligomer in the absence of PS-dT8[3+] (dTtaPS): no transfection element
Method: The efficiency of PS-dT8[3+] in the cellular uptake of polyA-tailed PNA oligomers was assessed through the luciferase splice correction assay in which the mutated intron 2 of the human β-globin gene has been inserted within the coding sequence of a luciferase reporter gene (pLuc705). The activation of a cryptic splice site in this intron leads to a defective luciferase enzyme. In the presence of a PNA oligomer complementary to the aberrant splice site, correct splicing is restored and results in an active luciferase. A concentration-dependence of splice correction activity by PS-dT8[3+]-mediated internalization of the PNA oligomer 10 in HeLa pLuc705 cells is shown in FIG. 12.
Complex formation between PNA or PMO oligomers and dTtaPS or dAtaPS: Appropriate amounts of PNA or PMO oligomers were diluted in serum-free OptiMEM™ (20 μl). dTtaPS or dAtaPS was added to the oligomer solution to achieve a final concentration that is twice that of the oligomer. After 30 min incubation at 37° C., the PNA or PMO oligomer: dTtaPS or dAtaPS complexes were stored at 4° C. for 15 minutes or until used. Stock solutions (2×) of the complexes were made by adding OptiMEM™ to appropriate volumes.
Luciferase assay protocol: HeLa pLuc 705 cells were seeded in a 96-well plate (2×10^4 cells/well) and allowed to grow at 37° C. for 18 h in 10% FBS-DMEM. The culture medium of each well was then replaced with either fresh serum-free or 20% serum-containing OptiMEM™ (50 μl) for experiments intended to be performed in serum-free or in 10% serum-containing media. A 2× solution of PNA or PMO oligomer:dTtaPS or dAtaPS complexes (50 μl) was added to the cells in order to achieve pre-determined complex concentrations, as indicated in the Figures. After a 4-hour incubation at 37° C., 20% FBS in OptiMEM™ (100 μl was added to serum-free experiments and cells were incubated for an additional 18 h at 37° C. The media was then removed by suction and the cells were mixed with a cell lysis reagent (50 μl) and agitated at ambient temperature for 10 minutes. The cell lysate (30 μl) was placed in a white 96-well plate and Bright-Glo™ reagent (20 μl) was added. Luciferase activity was measured using a microplate reader. For each well, luminescence was integrated over a period of 1 sec and recorded as relative light units (RLU). Luminescence measurements were normalized to the amount of protein present in the test sample.
Appropriate amounts of PNA/PMO oligomers were diluted in OptiMEM™ (20 μL) to achieve the concentration of 1 μM or as indicated in the Figures. PS-dT8[3+] or PS-dAs[3+] was added to the above oligomer solutions. After a 30 min incubation at 37° C., the PNA/PMO oligomer:PS-dT8[3+] or PS-dA8[3+] complexes were removed and kept at 4° C. for 15 minutes or until used. Stock solutions of the complexes were made by adding OptiMEM™ to appropriate volumes.
Luciferase Assay: Prior to performing experiments, HeLa pLuc 705 cells were seeded in a 96-well plate (2×10^4 cells/well) and allowed to grow at 37° C. for 18 h in 10% FBS DMEM. The culture medium of each well was then replaced with either fresh 50 μL serum free or 20% serum-containing OptiMEM™ for experiments intended to be performed in serum free or in 10% serum-containing media. A 2× solution of the PNA/PMO oligomer:PS-dT8[3+] or PS-dAs[3+] complexes (50 μL) was added to the cells in order to achieve a pre-determined concentration as indicated in the figures. After a 4-hour incubation at 37° C., 20% FBS in OptiMEM (100 μL) was added to serum free experiments and cells were incubated for an additional 18 h at 37° C. The media was then removed by suction and the cells were mixed with a cell lysis reagent (50 μL) and agitated at ambient temperature over a period of 10 minutes. The cell lysate (30 μL) was placed in white 96-well plate and Bright-Glow™ reagent (20 μL) was added. Luciferase activity was measured using a microplate reader. […]

[2] = tested on: HeLa pLuc705 cells; experiment: Cytotoxicity study with commercial cell-counting kit (CCK-8); details: oligomer 1.0 μM, dTtaPS 2.0 μM; 18 h; compared to medium or absence of dTtaPS
Method: Flat-bottom 96-well plates were purchased from BD-Falcon. The CCK-8 Kit for cytotoxicity studies was purchased from Dojindo Molecular Technologies.
The cytotoxicity of PNA oligomer 10:dTtaPS and PMO oligomer 21:dTtaPS complexes in HeLa pLuc 705 cells was evaluated over a period of 18 h using a commercial cell-counting kit.

[3] = tested on: HeLa pLuc 705 cells; experiment: Energy-dependence of the dTtaPS-assisted internalization of PNA oligomer 10; details: dTtaPS-mediated uptake; incubation of 1 h
Method: Energy-dependence of the dTtaPS-assisted internalization of PNA oligomer 10 in HeLa pLuc 705 cells: HeLa pLuc 705 cells were seeded in a 96-well plate (2×10^4 cells/well) and allowed to grow at 37° C. for 18 h in 10% FBS-DMEM. While the cell culture was maintained at 37° C. or 4° C., a 2× solution of a PNA oligomer 10:dTtaPS complex was prepared as described above. The cell culture medium was replaced with the PNA oligomer:dTtaPS complex solution to provide an oligomer and dTtaPS final concentration of […], respectively. After an incubation of 1 h at 37° C. or 4° C., the medium was removed by suction and luciferase activity was measured as described above in the Luciferase assay protocol. Luminescence measurements were normalized to the amounts of protein present in the test samples and reported as percent luminescence remaining relative to that of the experiment performed at 37° C.

[4] = tested on: HeLa pLuc 705 cells; experiment: Competition assay with PS-dT8 (luciferase readout); details: PNA oligomer 10 1.0 μM, dTtaPS 1.0 μM, PS-dT8 1.0, 2.0 or 4.0 μM
Method: Competition assay: HeLa pLuc 705 cells were seeded in a 96-well plate and grown in 10% FBS-DMEM as described above. Predetermined amounts of polyA-tailed PNA oligomer 10 and octathymidilyl DNA phosphorothioate (PS-dT8) were placed in individual microfuge tubes so that the molar ratio of PNA:PS-dT8 in each tube was 1:1, 1:2 or 1:4. OptiMEM™ (20 μl) was added to each of the three tubes, which were then placed in a heating block pre-heated to 60° C. After 2 min, the tubes were removed from the heating block, allowed to cool slowly to 20° C., and then, left standing in a cold room (4° C.) for 15 min. dTtaPS was added to the mixture of oligomers of each tube to achieve a concentration that is equimolar to that of the PNA oligomer 10. After a 30 min incubation at 37° C., the PNA/PS-dT8:dTtaPS complexes were stored at 4° C. for 15 minutes or until used. […] The cells were then incubated for an additional 30 min at 37° C., whereupon luciferase activity was measured as described above in the Luciferase assay protocol. Luminescence measurements were normalized to the amounts of protein present in the test samples and reported as percent luminescence remaining relative to that of the experiment performed in the absence of PS-dT8.

Row | Substance | luciferase activity / internalization of the oligomer in the absence of PS-dT8[3+] (dTtaPS) ([1]; listed as 21) | cytotoxicity of oligomer:dTtaPS complexes [2] | luciferase activity / internalization upon PS-dA8[3+] (dAtaPS)-mediated delivery of PNA oligomers ([1]; PS-dA8[3+] 2.0 μM, compared with PS-dT8[3+]:10 complex, FIG. 16, listed as 10) | luciferase activity (splice correction) upon PS-dT8[3+] (dTtaPS)-assisted delivery of PNA oligomers ([1]; PS-dT8[3+] 2 μM, FIG. 12, 13, 15, listed as 10) | luciferase activity / internalization of the oligomer in the absence of PS-dT8[3+] (dTtaPS) [1] | decrease of luciferase activity production at 4° C. relative to 37° C. [3] | decrease of luciferase activity production relative to control without PS-dT8 [4] [%]
1 | PMO oligomer 21: commercial PMO, CCTCTTACCTCAGTTACA-AAAAAA, SEQ ID NO. 15 (CCTCTTACCTCAGTTACAAAAAAA; all phosphorodiamidate morpholino (PMO)) | reduced to that of the negative control oligomer 22 | did not induce significant cytotoxicity |  |  |  |  | 
2 | PNA oligomer 10: commercial PNA, H-CCTCTTACCTCAGTTACA-AAAAAA-NH2, SEQ ID NO. 4 (CCTCTTACCTCAGTTACAAAAAAA; all peptide nucleic acid (PNA); PNA with C-terminal amide) |  | did not induce significant cytotoxicity | No significant level of luciferase activity was detected; also recorded: Poor luciferase activity | induced splice correction of the pre-mRNA encoding luciferase, in a dose-dependent manner | no luciferase activity was detected | at least 50% | 
3 | octathymidilyl DNA phosphorothioate [PS-dT8] |  |  |  |  |  |  | ≤ 80
